# According to patent US12391721B2, “Crystal forms of beta-nicotinamide mononucleotide” (Metro International Biotech, LLC, priority 2015, dated 2025):
# What was measured:
# Type in all cases: physicochemical
# [1] = Three month stability and forced degradation study: HPLC purity of stored solids; conditions: for Known Impurity* (%) (nicotinamide, RRT = 1.73 min) / Purity (%): HPLC
# Experimental: Purity analysis was performed on an Agilent HP1100 series system equipped with a diode array detector and using ChemStation software vB.04.03 using the method detailed below in Table 1.
# (§1) […] The samples were prepared in duplicate with an offset of 2 weeks. Each replicate was stored in a different container.
# (§2) Replicate 1 was charged in an open HPLC vial that was placed in a sealed scintillation vial containing a saturated solution of the relevant inorganic salt (Table 2). These samples were analysed by HPLC, 1H NMR, XRPD and Polarized Light Microscopy (PLM) at 4, 8, and 12 week time points.
# (§3) Replicate 2 was stored in sealed box with a recipient containing a saturated solution of the relevant inorganic salt (Table 2). These samples were analysed by HPLC at 2, 6, 10 and 12 week time points. Samples at 25° C./0% RH were stored in a sealed box containing a desiccant agent (P2O5).
# [2] = Three month stability and forced degradation study: solid form by XRPD after storage; conditions: for XRPD: Replicate 1
# Experimental: X-Ray Powder Diffraction patterns were collected on a Bruker D8 diffractometer using Cu Kα radiation (40 kV, 40 mA), θ-2θ goniometer, and divergence of V4 and receiving slits, a Ge monochromator and a Lynxeye detector. The instrument is performance checked using a certified Corundum standard (NIST 1976). The software used for data collection was Diffrac Plus XRD Commander v2.6.1 and the data were analysed and presented using Diffrac Plus EVA v15.0.0.0.
# Samples were run under ambient conditions as flat plate specimens using powder as received. The sample was gently packed into a cavity cut into polished, zero-background (510) silicon wafer. The sample was rotated in its own plane during analysis. The details of the data collection are: • Angular range: 2 to 42° 2θ • Step size: 0.05° 2θ • Collection time: 0.5 s/step HPLC
# as §1, §2
# [3] = Three month stability and forced degradation study: particle morphology by polarised light microscopy (PLM); conditions: Replicate 1
# Experimental: Samples were studied on a Leica LM/DM polarised light microscope with a digital video camera for image capture. A small amount of each sample was placed on a glass slide, 15 mounted in immersion oil and covered with a glass slip, the individual particles being separated as well as possible. The sample was viewed with appropriate magnification and partially polarised light, coupled to a λ false-color filter.
# as §1, §2
# [4] = Three month stability and forced degradation study: visual observations of stored solids
# Experimental: as §1, §2, §3
# [5] = Dynamic vapor sorption (DVS) of amorphous NMN; conditions: FIG. 7
# Excerpt: When a sample of amorphous NMN is exposed to atmospheric humidity, the sample goes through phases. […] The amorphous sample is hygroscopic until it deliquesces and starts crystallizing.
# [6] = solid stored 25° C., 0% RH, 4 weeks, Replicate 1
# [7] = solid stored 25° C., 0% RH, 8 weeks, Replicate 1
# [8] = solid stored 25° C., 0% RH, 12 weeks, Replicate 1
# [9] = solid stored 25° C., 0% RH, 12 weeks, Replicate 1, listed as Amorphous material
# [10] = solid stored 25° C., 60% RH, 2 weeks, Replicate 2
# [11] = solid stored 25° C., 60% RH, 4 weeks, Replicate 1
# [12] = solid stored 25° C., 60% RH, 6 weeks, Replicate 2
# [13] = solid stored 25° C., 60% RH, 8 weeks, Replicate 1
# [14] = solid stored 25° C., 60% RH, 10 weeks, Replicate 2
# [15] = solid stored 25° C., 60% RH, 12 weeks, Replicate 1
# [16] = solid stored 25° C., 60% RH, 12 weeks, Replicate 2
# [17] = solid stored 25° C., 97% RH, 2 weeks, Replicate 2
# [18] = solid stored 25° C., 97% RH, 4 weeks, Replicate 1
# [19] = solid stored 25° C., 97% RH, 6 weeks, Replicate 2
# [20] = solid stored 25° C., 97% RH, 10 weeks, Replicate 2
# [21] = solid stored 25° C., 97% RH, 12 weeks, Replicate 2
# [22] = solid stored 40° C., 75% RH, 2 weeks, Replicate 2
# [23] = solid stored 40° C., 75% RH, 4 weeks, Replicate 1
# [24] = solid stored 40° C., 75% RH, 6 weeks, Replicate 2
# [25] = solid stored 40° C., 75% RH, 8 weeks, Replicate 1
# [26] = solid stored 40° C., 75% RH, 10 weeks, Replicate 2
# [27] = solid stored 40° C., 75% RH, 12 weeks, Replicate 2
# [28] = solid stored 40° C., 75% RH, 12 weeks, Replicate 2, listed as amorphous material
# [29] = t = 0, baseline of the stability study, listed as J07086
# [30] = solid stored 25° C., 0% RH, 4 weeks
# [31] = solid stored 25° C., 0% RH, 8 weeks
# [32] = solid stored 25° C., 0% RH, 12 weeks
# [33] = solid stored 25° C., 60% RH, 4 weeks
# [34] = solid stored 25° C., 60% RH, 12 weeks
# [35] = solid stored 25° C., 97% RH, 4 weeks
# [36] = solid stored 40° C., 75% RH, 4 weeks
smiles,measurement,setting,value
"NC(=O)c1ccc[n+]([C@@H]2O[C@H](COP(=O)([O-])O)[C@@H](O)[C@H]2O)c1 [Form J07087, β-nicotinamide mononucleotide, reference compound]","Known Impurity* (%) (nicotinamide, RRT = 1.73 min)",[1]; [6],1.81%
same,Purity (%),[1]; [6],96.9%
same,"Known Impurity* (%) (nicotinamide, RRT = 1.73 min)",[1]; [7],2.44%
same,Purity (%),[1]; [7],95.8%
same,"Known Impurity* (%) (nicotinamide, RRT = 1.73 min)",[1]; [8],2.81%
same,Purity (%),[1]; [8],95.0%
same,"Known Impurity* (%) (nicotinamide, RRT = 1.73 min)",[1]; [9],2.8%
same,Purity (%),[1]; [9],95.5%
same,"Known Impurity* (%) (nicotinamide, RRT = 1.73 min)",[1]; [10],2.14%
same,Purity (%),[1]; [10],97.4%
same,"Known Impurity* (%) (nicotinamide, RRT = 1.73 min)",[1]; [11],2.13%
same,Purity (%),[1]; [11],96.9%
same,"Known Impurity* (%) (nicotinamide, RRT = 1.73 min)",[1]; [12],2.06%
same,Purity (%),[1]; [12],97.4%
same,"Known Impurity* (%) (nicotinamide, RRT = 1.73 min)",[1]; [13],3.46%
same,Purity (%),[1]; [13],95.2%
same,"Known Impurity* (%) (nicotinamide, RRT = 1.73 min)",[1]; [14],2.92%
same,Purity (%),[1]; [14],96.0%
same,"Known Impurity* (%) (nicotinamide, RRT = 1.73 min)",[1]; [15],3.46%
same,Purity (%),[1]; [15],95.7%
same,"Known Impurity* (%) (nicotinamide, RRT = 1.73 min)",[1]; [16],2.32%
same,Purity (%),[1]; [16],96.2%
same,"Known Impurity* (%) (nicotinamide, RRT = 1.73 min)",[1]; [17],1.79%
same,Purity (%),[1]; [17],97.8%
same,"Known Impurity* (%) (nicotinamide, RRT = 1.73 min)",[1]; [18],2.44%
same,Purity (%),[1]; [18],97.1%
same,"Known Impurity* (%) (nicotinamide, RRT = 1.73 min)",[1]; [19],3.01%
same,Purity (%),[1]; [19],96.5%
same,"Known Impurity* (%) (nicotinamide, RRT = 1.73 min)",[1]; [20],4.39%
same,Purity (%),[1]; [20],94.9%
same,"Known Impurity* (%) (nicotinamide, RRT = 1.73 min)",[1]; [21],7.02%
same,Purity (%),[1]; [21],91.5%
same,"Known Impurity* (%) (nicotinamide, RRT = 1.73 min)",[1]; [22],4.61%
same,Purity (%),[1]; [22],94.6%
same,"Known Impurity* (%) (nicotinamide, RRT = 1.73 min)",[1]; [23],6.70%
same,Purity (%),[1]; [23],91.3%
same,"Known Impurity* (%) (nicotinamide, RRT = 1.73 min)",[1]; [24],8.22%
same,Purity (%),[1]; [24],88.0%
same,"Known Impurity* (%) (nicotinamide, RRT = 1.73 min)",[1]; [25],14.23%
same,Purity (%),[1]; [25],76.9%
same,"Known Impurity* (%) (nicotinamide, RRT = 1.73 min)",[1]; [26],16.18%
same,Purity (%),[1]; [26],75.9%
same,"Known Impurity* (%) (nicotinamide, RRT = 1.73 min)",[1]; [27],20.60%
same,Purity (%),[1]; [27],~67.5^$ %
same,"Known Impurity* (%) (nicotinamide, RRT = 1.73 min)",[1]; [28],20.6%
same,Purity (%),[1]; [28],67.5%
same,"HPLC purity profile, Area % of main peak (RRT 1.00)",[1]; [29],98.56 Area %
same,"HPLC purity profile, Area % of peak at RRT 1.76 / 1.74 (nicotinamide)",[1]; [29],0.87 Area %
same,Purity,"[1]; time 0, listed as Amorphous material",98.2%
same,solid form and particle morphology after storage,"[2]; 12 weeks at 25° C., 0% RH",remained unchanged
same,XRPD,[2]; [30],Unchanged
same,XRPD,[2]; [31],Unchanged
same,XRPD,[2]; [32],Unchanged
same,XRPD,[2]; [33],Form 1
same,XRPD,"[2]; solid stored 25° C., 60% RH, 8 weeks",Form 1
same,XRPD,[2]; [34],Form 1
same,XRPD,[2]; [35],Form 1
same,XRPD,[2]; [36],Form 1
same,XRPD,"[2]; solid stored 40° C., 75% RH, 8 weeks",Form 1
same,XRPD,"[2]; solid stored 40° C., 75% RH, 12 weeks",Form 1
same,solid form on storage under humidity,"[2]; stored under 25% or greater relative humidity, gives Form 1 with acicular morphology",crystallized
same,PLM,[3]; [30],Unchanged
same,PLM,[3]; [31],Unchanged
same,PLM,[3]; [32],Unchanged
same,PLM,[3]; [33],acicular
same,PLM,[3]; [34],acicular
same,PLM,[3]; [35],acicular
same,PLM,[3]; [36],acicular
same,Observations,[4]; [6],white solid
same,Observations,[4]; [7],white solid
same,Observations,[4]; [8],white solid
same,Observations,[4]; [10],"light yellow solid,"
same,Observations,[4]; [11],brown solid
same,Observations,[4]; [12],"light brown,"
same,Observations,[4]; [13],"brown solid,"
same,Observations,[4]; [14],"light brown,"
same,Observations,[4]; [15],"brown solid,"
same,Observations,[4]; [16],"light brown,"
same,Observations,[4]; [17],white compacted
same,Observations,[4]; [18],"white solid,"
same,Observations,[4]; [19],"white solid,"
same,Observations,"[4]; solid stored 25° C., 97% RH, 8 weeks, Replicate 1",partially
same,Observations,[4]; [20],"white solid,"
same,Observations,"[4]; solid stored 25° C., 97% RH, 12 weeks, Replicate 1",deliquesced.
same,Observations,[4]; [21],"white solid,"
same,Observations,[4]; [22],brown compacted
same,Observations,[4]; [23],brown
same,Observations,[4]; [24],dark brown solid
same,Observations,[4]; [25],brown
same,Observations,[4]; [26],black solid
same,Observations,"[4]; solid stored 40° C., 75% RH, 12 weeks, Replicate 1","black solid,"
same,Observations,[4]; [27],"black solid,"
same,reversible mass pick up (DVS),"[5]; once crystallised, double cycle",up to 9 % w/w
same,behaviour on exposure to atmospheric humidity (DVS change in mass plot),[5]; until it deliquesces and starts crystallizing,hygroscopic
